From US20260165323A1, “USE OF STROBILURIN TYPE COMPOUNDS FOR COMBATING PHYTOPATHOGENIC FUNGI CONTAINING AN AMINO ACID SUBSTITUTION F129L IN THE MITOCHONDRIAL CYTOCHROME B PROTEIN CONFERRING RESISTANCE TO QO […]” (priority 2022, published 2026)

What was measured:
Format in all cases: in vivo
[1] = tested on: Phakopsora pachyrhizi containing the amino acid substitution F129L in the mitochondrial cytochrome b protein; experiment: Use Example 1: protective control of soybean rust on soybeans (PHAKPA P2); details: inoculated 2 days after spraying, % diseased leaf area
Protocol: (§1) The compound was dissolved in a mixture of acetone and/or dimethylsulfoxide and the wetting agent/emulsifier Wettol, which is based on ethoxylated alkylphenoles, in a ratio (volume) solvent-emulsifier of 99 to 1 to give a total volume of 5 ml. Subsequently, water was added to total volume of 100 ml. This stock solution was then diluted with the described solvent-emulsifier-water mixture to the final concentration given in the tables below.
Use Example 1. Protective Control of Soybean Rust on Soybeans Caused by Phakopsora pachyrhizi (PHAKPA P2)
(§2) Leaves of potted soybean seedlings were sprayed to run-off with the previously described spray solution, containing the concentration of active ingredient or their mixture as described below. The plants were allowed to air-dry. The trial plants were cultivated for 2 days in a greenhouse chamber at 23-27° C. and a relative humidity between 60 and 80%. Then the plants were inoculated with spores of Phakopsora pachyrhizi. The strain used contains the amino acid substitution F129L in the mitochondrial cytochrome b protein conferring resistance to Qo inhibitors. To ensure the success the artificial inoculation, the plants were transferred to a humid chamber with a relative humidity of about 95% and 20 to 24° C. for 24 hr. The trial plants were cultivated for up to 14 days in a greenhouse chamber at 23 to 27° C. and a relative humidity between 60 and 80%. The extent of fungal attack on the leaves was visually assessed as % diseased leaf area, the disease level of untreated controls was usually higher than 85%.

[2] = tested on: Phakopsora pachyrhizi containing the amino acid substitution F129L in the mitochondrial cytochrome b protein; experiment: Use Example 2: protective control of soybean rust on soybeans (PHAKPA P6); details: inoculated six days after spraying, % diseased leaf area
Protocol: as §1
Use Example 2. Protective Control of Soybean Rust on Soybeans Caused by Phakopsora Pachyrhizi (PHAKPA P6)
as §2, with “active ingredient as described” for “active ingredient or their mixture as described”, “cultivated for six days in” for “cultivated for 2 days in”, “95% and 23 to 27°” for “95% and 20 to 24°”, “23 to 27° C. for” for “20 to 24° C. for”

Puccinia recondita [3] = experiment: Use Example 4: preventative control of brown rust on wheat (PUCCRT P7); details: inoculated seven days after spraying, % diseased leaf area
Protocol: as §1
Use Example 4. Preventative Control of Brown Rust on Wheat Caused by Puccinia recondita (PUCCRT P7)
The first two developed leaves of potted wheat seedling were sprayed to run-off with previously described spray solution, containing the concentration of active ingredient or their mixture as described below. Seven days later the plants were dusted with spores of Puccinia recondita. To ensure the success of the artificial inoculation, the plants were transferred to a humid chamber without light and a relative humidity of 95 to 99% and 20 to 24° C. for 24 h. Then the trial plants were cultivated for 9 to 11 days in a greenhouse chamber at 20 to 24° C. and a relative humidity between 65 and 70%. The extent of fungal attack on the leaves was visually assessed as % diseased leaf area, the disease level of untreated controls was usually between 80 and 100%.

Puccinia recondita [4] = experiment: Use Example 3: curative control of brown rust on wheat (PUCCRT K4); details: % diseased leaf area
Protocol: as §1
Use Example 3. Curative Control of Brown Rust on Wheat Caused by Puccinia recondita (PUCCRT K4)
The first two developed leaves of potted wheat seedling were dusted with spores of Puccinia recondita. To ensure the success the artificial inoculation, the plants were transferred to a humid chamber without light and a relative humidity of 95 to 99% and 20 to 24° C. for 24 h. The next 3 days the plants were cultivated in a greenhouse chamber at 20 to 24° C. and a relative humidity between 65 and 70%. Then the plants were sprayed to run-off with previously described spray solution, containing the concentration of active ingredient or their mixture as described below. The plants were allowed to air-dry. Then the trial plants were cultivated for 5 to 7 days in a greenhouse chamber at 20 to 24° C. and a relative humidity between 65 and 70%. The extent of fungal attack on the leaves was visually assessed as % diseased leaf area, the disease level of untreated controls was usually between 80 and 100%.

| Compound | % PHAKPA (F129L) Disease level P2 at 4 ppm [1] | % PHAKPA (F129L) Disease level P2 at 16 ppm [1] | % PHAKPA (F129L) Disease level P6 at 4 ppm [2] | % PHAKPA (F129L) Disease level P6 at 16 ppm [2] | % PUCCRT Disease level P7 at 4 ppm (Puccinia recondita [3]) | % PUCCRT Disease level P7 at 16 ppm (Puccinia recondita [3]) | % PUCCRT Disease level K4 at 4 ppm (Puccinia recondita [4]) | % PUCCRT Disease level K4 at 16 ppm (Puccinia recondita [4]) |
| --- | --- | --- | --- | --- | --- | --- | --- | --- |
| CO/C=C(/C(=O)OC)c1cccc(Cl)c1CO/N=C(\COC)c1ccc(Cl)c(F)c1 [compound 110] | 1% | 0% | 15% | 0% | 41% | 3% | 70% | 4% |
| CNC(=O)/C(=N/OC)c1cccc(Cl)c1CO/N=C(\COC)c1c(F)cc(Cl)cc1F [compound 102] | 21% | 1% | 16% | 2% | 32% | 6% | 80% | 36% |
| CNC(=O)/C(=N/OC)c1cccc(Cl)c1CO/N=C(\COC)c1cccc(C#N)c1 [compound 117] | 59% | 5% | 34% | 8% | 14% | 1% | 18% | 0% |
| CCOC/C(=N\OCc1c(Cl)cccc1/C(=N\OC)C(=O)OC)c1ccc(Cl)cc1 [compound 44] | 95% | 55% | 80% | 68% | 77% | 37% | 75% | 73% |
| CNC(=O)/C(=N/OC)c1cccc(Cl)c1CO/N=C(\COC)c1cc(F)cc(F)c1 [compound 86] | 17% | 0% | 10% | 0% | 19% | 4% | 52% | 4% |
| CO/C=C(/C(=O)OC)c1cccc(Cl)c1CO/N=C(\COC)c1cccc(F)c1F [compound 87] | 5% | 0% | 2% | 0% | 28% | 5% | 67% | 10% |
| CCOC/C(=N\OCc1c(F)cccc1/C(=C\OC)C(=O)OC)c1ccc(F)cc1 [compound 16] | 20% | 4% | 70% | 17% | 80% | 43% | 83% | 57% |
| CNC(=O)/C(=N/OC)c1cccc(Cl)c1CO/N=C(/C#Cc1ccc(F)cc1)COC [compound 6, (2E)-2-[3-chloro-2-[[(Z)-[3-(4-fluorophenyl)-1-(methoxymethyl)prop-2-ynylidene]amino]oxymethyl]phenyl]-2-methoxyimino-N-methyl-acetamide] | 8% | 0% | 28% | 5% | 8% | 0% | 38% | 2% |
| CO/C=C(/C(=O)OC)c1cccc(Br)c1CO/N=C(\COC)c1ccccc1 [compound 59] | 0% | 0% | 1% | 0% | 22% | 0% | 11% | 0% |
